Legend:
[1] = Tubis et al. 1960; cited from earlier work
[2] = test system: rat Cerebellar Granular Cells (CGC); experiment: Cell viability (MTT) of CGC exposed to IAPP 20-29 monomer or aggregated; format: cell-based
Protocol: The solutions fragment of IAPP 20-29 (MM 1029 Da) are prepared in PBS buffer (100 mM, pH 7.4; NaCl 100 mM). Monomeric peptide concentration was 5.8 mM and the aggregation peptide was 32.6 μM in DMSO. Protein concentration is calculated using the calibration curve.
Chaperonin: solutions of chaperonin B and D (25 μM), selected as non-limiting examples of Formula I, are prepared in 1.2 mL of DMSO and dilute with the buffer to obtain a final volume of […]. Curcumin (5.5 mM) used as reference compound was prepared in ethanol. (Yang, F. et al. in J. Biol Chem 2005, 280, 5892-5901). […]
In particular, in this invention, the viability of CGC cell cultures was assessed with the 20-29 fragment of IAPP, in its monomeric and aggregated form or with the mixtures of protein:chaperonin at different molar ratios. Briefly, in all samples of CGC, half of the volume of medium is removed to add, independently, the quantities of tested protein or mixtures of peptide:chaperonin with different molar ratios (1:0.3 or 1:1). […]
In FIG. 12, the results of the assessment of cell viability was observed by MTT assay, which were analyzed by the one-way ANOVA statistical test, followed by a posteriori LSD test (LSD for its acronym in English Least Significant Difference).

SMILES | Fraction able to cross the blood brain barrier (BBB) [1] [%] | CGC viability with IAPP monomer plus reference compound versus monomer alone ([2]; IAPP 20-29 monomer, 20 hours, p>0.05) | CGC viability with aggregated IAPP 20-29 plus compound versus aggregated fragment alone ([2]; aggregated form of IAPP 20-29, 20 hours)
Nc1c(/N=N/c2ccc(-c3ccc(/N=N/c4cc(S(=O)(=O)O)c5ccccc5c4N)cc3)cc2)cc(S(=O)(=O)O)c2ccccc12 [CR, Congo Red] | 0.03 | – | –
COc1cc(/C=C/C(=O)CC(=O)/C=C/c2ccc(O)c(OC)c2)ccc1O [curcumin] | – | no significant differences | marked cytoprotective effect

Source: patent US9763900B2, “Chemical chaperonins as novel molecular modulators of beta protein aggregation present in conformational diseases” (Centro de Neurociencias de Cuba (NEURONIC), priority 2013, dated 2017)
